Entries after “also recorded” stand apart in the source; their conditions may differ.
Key:
[1] = system: mouse embryonic fibroblasts; assay: H2O2-induced peroxisome proliferation in mouse embryonic fibroblasts; format: cell-based
Description: Fibroblasts were isolated from mouse embryos at embryonic day 13.5 and cultured as described by Xu (2005). The cells were incubated in DMEM (Gibco) supplemented with 0.1 mM β-mercaptoethanol, and 0.5 mM H2O2 for 4 hours at 37° C., under normoxic conditions (95% air). The culture medium was then replaced with H2O2-free medium. Cell viability was checked 18 hours after H2O2 treatment, by measuring mitochondrial reductase activity with the MTT (3-(4,5-dimethylthiazol-2-yl)-2,5-diphenyl tetrazolium bromide) (Sigma M2128) assay. A polyclonal antibody against peroxisome membrane protein 70 (PMP70, Abcam ab3421) was used to label peroxisomes.

Pjvk−/− mice = assay: Auditory brainstem responses (ABR) in Pjvk−/− mice; format: in vivo, mouse; conditions: for recovery of ABR wave I latency and ABR interwave I-IV: treated Pjvk−/− mice
Description: (§1) Auditory tests were performed in an anechoic room. They consisted of distortion-product otoacoustic emissions (DPOAEs), auditory brainstem responses (ABRs), electrically-evoked brainstem responses (EEBRs), and cochlear potentials. Mice were anesthetized with an intraperitoneal injection of a ketamine and levomepromazin mixture (100 mg/kg: 5 mg/kg) and their core temperature was kept at 37° C. with the help of a servo-controlled heating pad. The DPOAE at frequency 2f1-f2 was recorded in response to two equal level primary tones, f1 and f2, with f2/f1=1.20 (CubeDis system, Mimosa Acoustics; ER10B microphone, Etymotic Res.). Frequency f2 was swept at 1/10th octave steps from 4 to 20 kHz, and DPOAE level was plotted against frequency f2 (primary tone levels increased from 20 to 70 dB SPL in 10 dB steps, then to 75 dB SPL). DPOAE threshold was defined as the smallest primary level giving rise to a detectable DPOAE. ABRs in response to calibrated short tone bursts in the 5-40 kHz range (repetition rate 17/s) were derived from the synchronous averaging of electroencephalograms recorded between subcutaneous stainless steel electrodes at the vertex and ipsilateral mastoid, with the help of a standard digital averaging system (CED1401+). A hundred responses to the tone bursts were averaged except within 10 dB of the ABR threshold (defined as the smallest tone-burst level giving rise to at least one repeatable wave above noise background level, 150 nV in an anesthetized animal), for which 300 tone bursts were used. Once ABR thresholds had been assessed, ABRs in response to 95 and 105 dB SPL tone bursts (100 averages) were collected for analysis of suprathreshold ABR waveforms, amplitudes and latencies. Controlled sound exposure was applied with the same acoustic probe used for ABRs without moving the sound system, so that pre- and post-exposure ABRs shared the same calibration. Intense stimuli were the same tone-bursts used for ABR measurements at 105 dB SPL, presented 1,000 times at the same repetition rate of 17/s. […]
N-acetyl-L-cysteine (L-NAC; Sigma) or taurine (Sigma) was administrated to pregnant Pjvk^−/− mice in the drinking water. A daily dose of 1% L-NAC or 2% taurine was given to the mother during and after pregnancy, so that pups received them from birth on by feeding on the mother's milk. The treatment was continued until P21, and the auditory function of the treated Pjvk^−/− pups was tested at P21.

[2] = system: Pjvk−/− mice (OHC function); assay: Distortion-product otoacoustic emissions (DPOAE) in Pjvk−/− mice; format: in vivo, mouse; conditions: antioxidant-treated Pjvk−/− pups, around P21
Description: as §1, with “DPOAE threshold was defined as the smallest primary level giving rise to a detectable DPOAE.” left out, “A hundred responses to the tone bursts were averaged except within 10 dB of the ABR threshold (defined as the smallest tone-burst level giving rise to at least one repeatable wave above noise background level, 150 nV in an anesthetized animal), for which 300 tone bursts were used.” left out, “latencies.” for “latencies. Controlled sound exposure was applied with the same acoustic probe used for ABRs without moving the sound system, so that pre- and post-exposure ABRs shared the same calibration. Intense stimuli were the same tone-bursts used for ABR measurements at 105 dB SPL, presented 1,000 times at the same repetition rate of 17/s.”

[3] = system: Pjvk−/− mice (auditory neurons); assay: Electrically-evoked brainstem responses (EEBR) with controlled electrical stimulation in Pjvk−/− mice; format: in vivo, mouse; conditions: for EEBR wave E IV amplitude / resistance to high-rate electrical stimulation: 200/s for 1 minute, treated Pjvk−/− mice
Text: Electrical stimulations of the eighth cranial nerve were delivered by a silver electrode placed in the round-window niche and excited by biphasic electrical impulses (neutral electrode in neck muscles; peak amplitude of electrical stimulus about 0.5 V; duration of the positive and negative phases 150 microseconds; adjustable repetition rate). EEBRs were extracted using the same setup as for ABRs (Roux et al., 2006), in response to 100 electrical impulses presented with alternating polarities (repetition rate 17 Hz). EEBR threshold was defined as the smallest electrical amplitude eliciting repeatable waves above noise background level (the same as for ABRs), labelled from E II to E IV in reference to their ABR equivalents II-IV. Controlled electrical stimulation was applied at 5 dB above EEBR detection threshold with a 200 Hz repetition rate. Occasionally, the silver electrode on the round window served for recording Compound Action Potentials (CAPs) in response to the same tone-bursts used for ABR studies (averages of 32 presentations, repetition rates 17/s), prior to EEBR data collection. These recordings served to check that CAP thresholds and ABR thresholds were within 2 dB of each other at all frequencies, and the exact position of ABR wave I could be ascertained form the larger wave N1, its equivalent on CAP recordings. This was particularly important in mice with abnormally small wave I to avoid incorrect identifications (when wave I was reduced to a very small flattened deflection resembling a summating potential, the slightly larger wave II might have been mistakenly labelled wave I on ABR recordings, while wave N1, even when small, kept its characteristic shape).
Intracochlear viral transduction was carried out as described by Akil et al. (2012). […]
Which cells are the targets of the pejvakin defect, and are they all hypervulnerable to sound exposure? […] Moreover, Electrically-Evoked Brainstem Responses (EEBR) to a direct electric stimulation of the auditory neurons, which test the response of the auditory pathway beyond the cochlea, was also analysed. […]

[4] = antioxidant-treated Pjvk−/− mice, P21

| SMILES | increase in number of peroxisomes after H2O2 treatment, Pjvk+/+ fibroblasts ([1]; 0.5 mM H2O2, Pjvk+/+ MEFs) [%] | number of peroxisomes after H2O2 treatment, Pjvk−/− fibroblasts ([1]; 0.5 mM H2O2, Pjvk−/− MEFs) | protective effect on IHCs and neurons (Pjvk−/− mice; Pjvk−/− mice) | number of auditory neurons that responded to sound stimulation in synchrony (Pjvk−/− mice; Pjvk−/− pups treated via mother's milk) | ABR threshold at 10 kHz (Pjvk−/− mice; antioxidant via mother's drinking water/milk, Pjvk−/− pups tested around P21) [dB SPL] | ABR wave I amplitude (in words) (Pjvk−/− mice; [4]) | ABR wave I latency (Pjvk−/− mice; [4]) [ms] | amplitude of ABR wave I in response to 105 dB SPL (Pjvk−/− mice; [4]) [μV] | ABR interwave I-IV latency (Pjvk−/− mice; antioxidant-treated Pjvk−/− pups, P21) [ms] | ABR thresholds (recovery) (Pjvk−/− mice; antioxidant-treated vs untreated Pjvk−/− pups, P21, listed as NAC) | recovery of ABR wave I latency and ABR interwave I-IV (Pjvk−/− mice; P21) | effect on OHCs (DPOAE) [2] | EEBR wave E IV amplitude / resistance to high-rate electrical stimulation [3] | EEBR wave E IV amplitude / resistance to high-rate electrical stimulation ([3]; listed as NAC) | recovery of neuronal function after high-rate electrical stimulation ([3]; 5 min after high-rate exposure) |
| --- | --- | --- | --- | --- | --- | --- | --- | --- | --- | --- | --- | --- | --- | --- | --- |
| OO [H2O2] | 46 | remained unchanged | – | – | – | – | – | – | – | – | – | – | – | – | – |
| CC(=O)N[C@@H](CS)C(=O)O [N-acetyl cysteine, N-acetyl-L-cysteine] | – | – | moderate protective effect | restored | 72.2±9.3 | fell within the normative range | 1.55 ± 0.18 | 4.35±1.16 | 2.91 ± 0.32 | slight recovery; also recorded: slightly improved | no significant recovery | no beneficial effect on OHCs | resisted to high-rate electric stimulation of auditory pathways better than untreated | remained unaffected | Full recovery of neuronal function |
| NCCS(=O)(=O)O [taurine] | – | – | – | – | – | – | – | – | – | – | no significant recovery | no beneficial effect on OHCs | – | – | – |
